Values quoted from earlier work in patent publication US6441051B1, “Insect eradicator and method” (priority 2001, dated 2002).

Tested on: fire ants
Conditions: d-limonene at about 5% concentration, after twenty-four hours

## C=C(C)[C@H]1CC=C(C)CC1 [d-limonene]
  kill rate: approximately 70%
